From ChEMBL document CHEMBL1136837, “Unified QSAR approach to antimicrobials. 4. Multi-target QSAR modeling and comparative multi-distance study of the giant components of antiviral drug-drug complex networks” (Bioorg Med Chem, 2009)

Key:
[1] = system: Human rhinovirus sp.; test: Antiviral activity against Human rhinovirus; assay type: functional, organism-based
[2] = system: Simplexvirus; test: Antiviral activity against Herpes simplex virus; assay type: functional, organism-based
[3] = system: Human gammaherpesvirus 4; test: Antiviral activity against Epstein-Barr virus; assay type: functional, organism-based
[4] = system: Human alphaherpesvirus 1; test: Antiviral activity against Herpes simplex virus 1; assay type: functional, organism-based; conditions: Human alphaherpesvirus 1
[5] = system: Human alphaherpesvirus 2; test: Antiviral activity against Herpes simplex virus 2; assay type: functional, organism-based; conditions: Human alphaherpesvirus 2
[6] = system: Human betaherpesvirus 5; test: Antiviral activity against Human cytomegalovirus; assay type: functional, organism-based; conditions: Human betaherpesvirus 5
[7] = system: Human gammaherpesvirus 8; test: Antiviral activity against Human herpesvirus 8; assay type: functional, organism-based
[8] = system: Human alphaherpesvirus 3; test: Antiviral activity against Varicella zoster virus; assay type: functional, organism-based
[9] = system: Human betaherpesvirus 6; test: Antiviral activity against Human herpesvirus 6A; assay type: functional, organism-based
[10] = system: Human betaherpesvirus 6; test: Antiviral activity against Human herpesvirus 6B; assay type: functional, organism-based
[11] = system: Picornaviridae; test: Antiviral activity against Human picornavirus; assay type: functional, organism-based
[12] = system: Vaccinia virus; test: Antiviral activity against Vaccinia virus; assay type: functional, organism-based, Orthopoxvirus vaccinia; conditions: Orthopoxvirus vaccinia
[13] = system: Human adenovirus 2; test: Antiviral activity against Human adenovirus 2; assay type: functional, organism-based; conditions: Human mastadenovirus C
[14] = system: Influenza B virus; test: Antiviral activity against influenza B virus; assay type: functional, organism-based
[15] = system: Influenza A virus; test: Antiviral activity against influenza H1N1 virus; assay type: functional, organism-based
[16] = system: H2N2 subtype; test: Antiviral activity against influenza H2N2 virus; assay type: functional, organism-based; conditions: Influenza A virus
[17] = system: Influenza A virus H3N2; test: Antiviral activity against influenza H3N2 virus; assay type: functional, organism-based, H3N2 subtype
[18] = system: Human immunodeficiency virus 1; test: Antiviral activity against HIV1; assay type: functional, organism-based
[19] = system: Human immunodeficiency virus 2; test: Antiviral activity against HIV2; assay type: functional, organism-based
[20] = system: Moloney murine sarcoma virus; test: Antiviral activity against Moloney sarcoma virus; assay type: functional, organism-based
[21] = system: Hepatitis B virus; test: Antiviral activity against Hepatitis B virus; assay type: functional, organism-based
[22] = system: unidentified influenza virus; test: Antiviral activity against influenza virus; assay type: functional, organism-based

Question: With `CCOC(=O)/C=C/[C@H](C[C@H]1CCNC1=O)NC(=O)[C@H](Cc1ccccc1)n1cccc(NC(=O)OCc2ccccc2)c1=O` as the compound, how does the IC50 [1] read?
Answer: 0.469 µM

Question: Which IC50 [1] does the source give for `CCOC(=O)/C=C/[C@H](CCC(N)=O)NC(=O)[C@H](Cc1ccccc1)n1cccc(NC(=O)C2SCCS2)c1=O` here?
Answer: 0.104 µM

Question: For `Cc1ccc(Cn2c(N)c(C#N)c3c(N)ncnc32)cc1`, which IC50 [2] is on record?
Answer: 60 µM

Question: How did the IC50 [1] turn out when `CCOC(=O)/C=C/[C@H](CCC(N)=O)NC(=O)[C@H](CC1CCCCC1)n1cccc(NC(=O)OCc2ccccc2)c1=O` was run?
Answer: 0.178 µM

Question: With `O=C(NCc1ccc(Cl)cc1)c1cnc2ccc(CCCO)cc2c1O` as the compound, how does the IC50 [2] read?
Answer: 11 µM

Question: Which IC50 [3] does the source give for `Nc1ccn(/C=C2/CC2(CO)CO)c(=O)n1` here?
Answer: 45 µM

Question: What about the IC50 [4] of the same compound?
Answer: 448 µM

Question: What about the IC50 [5] of the same compound?
Answer: 448 µM

Question: And the IC50 [6]?
Answer: 14 µM

Question: And the IC50 [7]?
Answer: 197 µM

Question: And the IC50 [8]?
Answer: 448 µM

Question: Which results are given for `CC(C)Nc1nc2cc(Cl)c(Cl)cc2n1[C@H]1O[C@@H](CO)[C@H](O)[C@@H]1O` [MARIBAVIR]?
Answer: IC50 [9]: 125 µM; IC50 [10]: 106 µM

Question: `CNC(=O)/C=C(\c1ccccc1)c1ccc2nc(NCC(=O)NC)c(-c3ccc(F)cc3)n2n1` was tested. Which IC50 [11] did it give?
Answer: 0.11 µM

Question: How did the IC50 [2] turn out when `CCCCCCCCCCCCCCCCOCCCOP1(=O)CO[C@@H](CN2CCC(N)=NC2=O)CO1` (stereo partly specified) was run?
Answer: 0.04 µM

Question: What about the IC50 [6] of the same compound?
Answer: 0.04 µM

Question: And the IC50 [12]?
Answer: 5.6 µM

Question: What does the source list for `O=C(O)P(=O)(O)O` [FOSCARNET]?
Answer: IC50 [13]: 500 µM; IC50 [6]: 7 µM

Question: Which results are given for `CCC(CC)O[C@@H]1C=C(C(=O)O)C[C@H](N)[C@H]1NC(C)=O` [OSELTAMIVIR CARBOXYLATE]?
Answer: IC50 [14]: 0.015 µM; IC50 [15]: 0.0039 µM; IC50 [16]: 0.00017 µM; IC50 [17]: 0.0006 µM

Question: How did the IC50 [1] turn out when `CCOC(=O)/C=C/[C@H](C[C@@H]1CCNC1=O)NC(=O)C1=Cc2cc(Br)ccc2OC1` was run?
Answer: 0.18 µM

Question: Which results are given for `O[C@@H]1[C@H](O)[C@H](O)CO[C@H]1n1c(Br)nc2cc(Cl)c(Cl)cc21`?
Answer: IC50 [9]: 125 µM; IC50 [10]: 95 µM

Question: Which IC50 [3] does the source give for `Nc1nc2c(ncn2/C=C2/CC2(CO)CO)c(=O)[nH]1` [FILOCICLOVIR] here?
Answer: 45 µM

Question: What about the IC50 [4] of the same compound?
Answer: 380 µM

Question: What about the IC50 [5] of the same compound?
Answer: 380 µM

Question: And the IC50 [8]?
Answer: 380 µM

Question: How did the IC50 [1] turn out when `CCOC(=O)/C=C/[C@H](C[C@@H]1CCNC1=O)NC(=O)[C@H](Cc1ccccc1)n1cccc(NC(=O)OCc2ccccc2)c1=O` was run?
Answer: 0.003 µM

Question: With `CCOC(=O)/C=C/[C@H](C[C@@H]1CCNC1=O)NC(=O)c1ccc2ccccc2c1` as the compound, how does the IC50 [1] read?
Answer: 0.15 µM

Question: How did the IC50 [4] turn out when `CN(C)c1cc(OCCOCP(=O)(O)O)nc(N)n1` was run?
Answer: 0.00137 µM

Question: What about the IC50 [5] of the same compound?
Answer: 0.00137 µM

Question: What about the IC50 [18] of the same compound?
Answer: 0.000342 µM

Question: What about the IC50 [19] of the same compound?
Answer: 0.000342 µM

Question: What about the IC50 [20] of the same compound?
Answer: 0.000455 µM

Question: What about the IC50 [8] of the same compound?
Answer: 0.000171 µM

Question: For `N#Cc1cn([C@@H]2O[C@H](CO)[C@@H](O)[C@H]2O)c2ncnc(N)c12` [TOYOCAMYCIN], which IC50 [2] is on record?
Answer: 38 µM

Question: Which results are given for `Nc1ncnc2c1ncn2/C=C1/CC1(CO)CO`?
Answer: IC50 [3]: 166 µM; IC50 [4]: 404 µM; IC50 [5]: 404 µM; IC50 [6]: 12 µM; IC50 [7]: 57 µM; IC50 [8]: 404 µM

Question: Which IC50 [1] does the source give for `CCOC(=O)/C=C/[C@H](C[C@@H]1CCNC1=O)NC(=O)C1=Cc2cc(Cl)ccc2OC1` here?
Answer: 0.16 µM

Question: `Cn1cnc2c(NCc3ccccc3)nc(NCCO)nc21` [OLOMOUCINE] was tested. Which IC50 [2] did it give?
Answer: 100 µM

Question: Which IC50 [17] does the source give for `CCC(CC)C(NC(C)=O)C1C(NC(=N)N)CC(C(=O)O)C1O` (stereo unspecified) here?
Answer: 0.14 µM

Question: How did the IC50 [3] turn out when `Nc1nc2c(ncn2/C=C2\CC2(F)CO)c(=O)[nH]1` (stereo unspecified) was run?
Answer: 20 µM

Question: And the IC50 [21]?
Answer: 20 µM

Question: What about the IC50 [18] of the same compound?
Answer: 100 µM

Question: What about the IC50 [8] of the same compound?
Answer: 79.6 µM

Question: Which results are given for `Nc1nc(NC2CC2)cc(OCCOCP(=O)(O)O)n1`?
Answer: IC50 [4]: 0.000789 µM; IC50 [5]: 0.000263 µM; IC50 [18]: 0.000329 µM; IC50 [20]: 0.000132 µM; IC50 [8]: 0.000164 µM

Question: `Cc1cn(/C=C2\CC2(F)CO)c(=O)[nH]c1=O` (stereo unspecified) was tested. Which IC50 [3] did it give?
Answer: 20 µM

Question: And the IC50 [21]?
Answer: 20 µM

Question: And the IC50 [18]?
Answer: 100 µM

Question: And the IC50 [8]?
Answer: 442 µM

Question: `CCOC(=O)/C=C/[C@H](CCC(N)=O)NC(=O)[C@H](Cc1ccccc1)n1cccc(NC(=O)c2cc(Cl)on2)c1=O` was tested. Which IC50 [1] did it give?
Answer: 0.24 µM

Question: How did the IC50 [1] turn out when `CCOC(=O)/C=C/[C@H](C[C@@H]1CCNC1=O)NC(=O)c1cc(-c2ccccc2)oc1C` was run?
Answer: 1.94 µM

Question: Which IC50 [11] does the source give for `CNC(=O)/C=C(\c1ccc(OC)cc1)c1ccc2nc(NCC(=O)NC)c(-c3ccc(F)cc3)n2n1` here?
Answer: 0.6 µM

Question: What does the source list for `Nc1nc(N)c2ncn(/C=C3\CC3(CO)CO)c2n1`?
Answer: IC50 [4]: 381 µM; IC50 [5]: 381 µM; IC50 [6]: 3.3 µM; IC50 [7]: 165 µM; IC50 [8]: 39 µM

Question: With `CCCC(CCC)C(NC(C)=O)C1CC(C(=O)O)CC1NC(=N)N` (stereo unspecified) as the compound, how does the IC50 [15] read?
Answer: 0.72 µM

Question: `Nc1cc(OCCOCP(=O)(O)O)ncn1` was tested. Which IC50 [4] did it give?
Answer: 6.43 µM

Question: And the IC50 [20]?
Answer: 5.22 µM

Question: `N#Cc1cn([C@@H]2O[C@H](CO)[C@@H](O)[C@@H]2F)c2ncnc(N)c12` was tested. Which IC50 [2] did it give?
Answer: 0.47 µM

Question: What about the IC50 [6] of the same compound?
Answer: 0.025 µM

Question: Which IC50 [15] does the source give for `CCC(CC)[C@H](NC(C)=O)[C@@H]1[C@H](O)[C@@H](C(=O)O)C[C@H]1NC(=N)N` [PERAMIVIR ANHYDROUS] here?
Answer: 0.2 µM

Question: What about the IC50 [22] of the same compound?
Answer: 8.4 µM

Question: `COc1nc(N)nc2c1ncn2/C=C1/CC1(CO)CO` was tested. Which IC50 [3] did it give?
Answer: 161 µM

Question: And the IC50 [4]?
Answer: 361 µM

Question: And the IC50 [5]?
Answer: 361 µM

Question: What about the IC50 [8] of the same compound?
Answer: 3 µM

Question: Which results are given for `Nc1nc(OCCOCP(=O)(O)O)cc(OCCOCP(=O)(O)O)n1`?
Answer: IC50 [4]: 0.000596 µM; IC50 [5]: 0.000993 µM; IC50 [18]: 0.000141 µM; IC50 [19]: 0.000199 µM; IC50 [20]: 0.000107 µM; IC50 [8]: 0.000124 µM
